Results from patent US20230141603A1, “BENZODIAZEPINE DERIVATIVES AS GABA A GAMMA1 PAM” (Hoffmann-La Roche Inc., priority 2021, published 2023).

target: T1, h-GABAA α1β2γ1 (Homo sapiens, UniProt P14867+Q8N1C3); test: Radioligand binding assay, [3H]RO7239181 competition, HEK293F membranes
T1 construct: expressed in transfected cells; host or cells: HEK293F cells (ThermoFisher R79007), membranes
T1 sequence (P14867 28-456): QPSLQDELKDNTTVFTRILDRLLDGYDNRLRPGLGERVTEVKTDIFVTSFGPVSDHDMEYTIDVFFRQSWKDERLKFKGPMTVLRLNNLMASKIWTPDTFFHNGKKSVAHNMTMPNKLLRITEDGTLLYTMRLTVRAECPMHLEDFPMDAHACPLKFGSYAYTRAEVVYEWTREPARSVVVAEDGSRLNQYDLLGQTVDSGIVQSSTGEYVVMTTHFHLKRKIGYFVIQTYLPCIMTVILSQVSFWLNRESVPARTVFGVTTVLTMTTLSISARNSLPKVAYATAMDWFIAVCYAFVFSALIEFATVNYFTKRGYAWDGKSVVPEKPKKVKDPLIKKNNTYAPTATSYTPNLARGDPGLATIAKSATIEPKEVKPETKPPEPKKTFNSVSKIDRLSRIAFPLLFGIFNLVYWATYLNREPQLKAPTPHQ
T1 sequence (P47870 25-512 partner limits assumed): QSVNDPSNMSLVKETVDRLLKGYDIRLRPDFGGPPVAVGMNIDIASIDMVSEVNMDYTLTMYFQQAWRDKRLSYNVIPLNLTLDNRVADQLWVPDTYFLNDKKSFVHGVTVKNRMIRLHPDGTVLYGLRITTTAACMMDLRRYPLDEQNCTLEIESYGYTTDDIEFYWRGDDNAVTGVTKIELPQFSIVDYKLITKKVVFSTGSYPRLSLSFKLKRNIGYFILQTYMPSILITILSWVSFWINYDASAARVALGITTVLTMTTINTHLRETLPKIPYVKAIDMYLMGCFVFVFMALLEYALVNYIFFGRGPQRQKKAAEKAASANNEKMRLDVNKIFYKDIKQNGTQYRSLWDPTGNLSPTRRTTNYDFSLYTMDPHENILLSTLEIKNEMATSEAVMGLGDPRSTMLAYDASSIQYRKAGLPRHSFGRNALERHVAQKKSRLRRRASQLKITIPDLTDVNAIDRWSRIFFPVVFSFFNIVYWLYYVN
T1 sequence (Q8N1C3 36-465): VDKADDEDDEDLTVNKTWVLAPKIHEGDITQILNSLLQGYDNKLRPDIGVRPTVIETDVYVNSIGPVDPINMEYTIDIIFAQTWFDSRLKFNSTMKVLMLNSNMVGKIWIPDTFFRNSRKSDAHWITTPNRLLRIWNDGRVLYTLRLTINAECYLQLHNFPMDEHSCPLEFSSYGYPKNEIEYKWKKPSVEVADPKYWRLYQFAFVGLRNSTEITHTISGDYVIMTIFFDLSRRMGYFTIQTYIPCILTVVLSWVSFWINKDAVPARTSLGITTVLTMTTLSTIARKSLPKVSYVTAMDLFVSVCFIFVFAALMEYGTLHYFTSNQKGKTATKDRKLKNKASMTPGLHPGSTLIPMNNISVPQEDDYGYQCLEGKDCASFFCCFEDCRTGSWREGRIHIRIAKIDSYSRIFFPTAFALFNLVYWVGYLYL
Experimental: The affinity of compounds at GABAA γ1 subunit-containing receptors was measured by competition for [^3H]RO7239181 (67.3 Ci/mmol; Roche) binding to membranes from HEK293F cells (ThermoFisher R79007) expressing human (transiently transfected) receptors of composition […], α2β2γ1, α1β2γ1.
Harvested pellets from HEK293F cells expressing the different GABAA receptor subtypes were resuspended in Mannitol Buffer pH 7.2-7.4 (Mannitol 0.29M, Triethylamine 10 mM, Acetic acid 10 mM, EDTA 1 mM plus protease inhibitors (20 tablets Complete, Roche Diagnostics Cat. No. 05 056 489 001 per liter)), washed two times and then resuspended at 1:10 to 1:15 dilution in the same buffer. Cell disruption was performed by stirring the suspension in a Parr vessel #4637 at 435 psi for 15 minutes, and then the suspensions were centrifuged at 1000×g for 15 minutes at 4° C. (Beckman Avanti J-HC; rotor JS-4.2). The supernatant (S1) was transferred in a 21 Schott flask and the pellet (P1) was resuspended with Mannitol Buffer up to 175 ml. The resuspended pellet was transferred into a 250 ml Corning centrifugal beaker and centrifuged at 1500×g for 10 minutes at 4° C. (Beckman Avanti J-HC; rotor JS-4.2). The supernatant (S1) was then transferred in the 21 Schott flask and the pellet was discarded. The supernatants (S1) were centrifuged in 500 ml Beckman polypropylene centrifugal beaker at 15′000×g for 30 minutes at 4° C. (Beckman Avanti J-20 XP; rotor JLA-10.500). The pellet (P2) was resuspended with Mannitol Buffer 1:1 and frozen at −80° C. The supernatant (S2) was centrifuged in 100 ml Beckman polypropylene centrifugal tubes at 48000×g for 50 minutes at 4° C. (Beckman Avanti J-20 XP; rotor JA-18). The supernatant (S3) was discarded and the pellet (P3) was resuspended with 1:1 Mannitol Buffer. The P2 and P3 protein concentration was determined with the BIORAD Standard assay method with bovine serum albumin as standard and measured on the NANO-Drop 1000. The membrane suspension was aliquots (500 μl per tube) and stored at −80° C. until required. Membrane homogenates were resuspended and polytronised (Polytron PT1200E Kinematica AG) in Potassium Phosphate 10 mM, KCl 100 mM binding buffer at pH 7.4 to a final assay concentration determined with a previous experiment.
Assays were incubated to equilibrium for 1 hour at 4° C. and then, membranes were filtered onto unifilter (96-well white microplate with bonded GF/C filters preincubated 20-50 minutes in 0.3% Polyethylenimine) with a Filtermate 196 harvester (Packard BioScience) and washed 4 times with cold Potassium Phosphate 10 mM pH 7.4, KCl 100 mM binding buffer. After drying, filter-retained radioactivity was detected by liquid scintillation counting. Ki values were calculated using Excel-Fit (Microsoft) and are the means of two determinations.

Row | Structure (SMILES) | Ki [nM]
1 | Cl.NCc1nnc2n1-c1ccc(Br)c(Cl)c1C(c1c(F)cccc1F)=NC2 [Example 36, [8-bromo-7-chloro-6-(2,6-difluorophenyl)-4H-[1,2,4]triazolo[4,3-a][1,4]benzodiazepin-1-yl]methanamine hydrochloride] | 11.9
2 | Clc1cccnc1C1=NCc2nnc(-c3ccncn3)n2-c2ccc(Br)c(Cl)c21 [Example 44, 8-bromo-7-chloro-6-(3-chloro-2-pyridyl)-1-pyrimidin-4-yl-4H-[1,2,4]triazolo[4,3-a][1,4]benzodiazepine] | 11.5
3 | Cc1nnc2n1-c1ccc(Br)c(Cl)c1C(c1ncccc1F)=NC2 [Example 24, 8-bromo-7-chloro-6-(3-fluoro-2-pyridyl)-1-methyl-4H-[1,2,4]triazolo[4,3-a][1,4]benzodiazepine] | 43.6
4 | O=c1[nH]nc2n1-c1ccc(Br)c(Cl)c1C(c1ccccc1F)=NC2 [Example 26, 8-bromo-7-chloro-6-(2-fluorophenyl)-2,4-dihydro-[1,2,4]triazolo[4,3-a][1,4]benzodiazepin-1-one] | 24.1
5 | Fc1cccc(F)c1C1=NCc2nnc(-c3ccncn3)n2-c2ccc(Br)c(Br)c21 [Example 43, 7,8-dibromo-6-(2,6-difluorophenyl)-1-pyrimidin-4-yl-4H-[1,2,4]triazolo[4,3-a][1,4]benzodiazepine] | 8.4
6 | Cc1nnc2n1-c1ccc(C(F)(F)F)c(Cl)c1C(c1ncccc1F)=NC2 [Example 78, 7-chloro-6-(3-fluoro-2-pyridyl)-1-methyl-8-(trifluoromethyl)-4H-[1,2,4]triazolo[4,3-a][1,4]benzodiazepine] | 67.7
7 | Fc1cccc(F)c1C1=NCc2nnc(-c3cccnn3)n2-c2ccc(Br)c(Br)c21 [Example 42, 7,8-dibromo-6-(2,6-difluorophenyl)-1-pyridazin-3-yl-4H-[1,2,4]triazolo[4,3-a][1,4]benzodiazepine] | 7.2
8 | COc1ccc2c(c1Cl)C(c1c(F)cccc1F)=NCc1nnc(C3CC3)n1-2 [Example 79, 7-chloro-1-cyclopropyl-6-(2,6-difluorophenyl)-8-methoxy-4H-[1,2,4]triazolo[4,3-a][1,4]benzodiazepine] | 80.1
9 | Fc1ccccc1C1=NCc2nncn2-c2ccc(Br)c(Cl)c21 [Example 8, 8-bromo-7-chloro-6-(2-fluorophenyl)-4H-[1,2,4]triazolo[4,3-a][1,4]benzodiazepine] | 43.8
10 | Fc1cccc(F)c1C1=NCc2nnc(-c3ccncn3)n2-c2ccc(Cl)c(Cl)c21 [Example 12, 7,8-dichloro-6-(2,6-difluorophenyl)-1-pyrimidin-4-yl-4H-[1,2,4]triazolo[4,3-a][1,4]benzodiazepine] | 17.6
11 | Fc1cccnc1C1=NCc2nnc(C3CC3)n2-c2ccc(Cl)c(Cl)c21 [Example 65, 7,8-dichloro-1-cyclopropyl-6-(3-fluoro-2-pyridyl)-4H-[1,2,4]triazolo[4,3-a][1,4]benzodiazepine] | 110
12 | Fc1ccccc1C1=NCc2nnc(-c3cccnn3)n2-c2ccc(Br)c(Cl)c21 [Example 3, 8-bromo-7-chloro-6-(2-fluorophenyl)-1-pyridazin-3-yl-4H-[1,2,4]triazolo[4,3-a][1,4]benzodiazepine] | 26.1
13 | Cc1ncc2n1-c1ccc(Cl)cc1C(c1ccccc1F)=NC2 [Midazolam, reference compound] | 1150
14 | Fc1cccc(F)c1C1=NCc2nnc(-c3cccnn3)n2-c2ccc(Cl)c(Cl)c21 [Example 14, 7,8-dichloro-6-(2,6-difluorophenyl)-1-pyridazin-3-yl-4H-[1,2,4]triazolo[4,3-a][1,4]benzodiazepine] | 5.2
15 | Cc1nnc2n1-c1ccc(C(F)(F)F)c(Cl)c1C(c1c(F)cccc1F)=NC2 [Example 40, 7-chloro-6-(2,6-difluorophenyl)-1-methyl-8-(trifluoromethyl)-4H-[1,2,4]triazolo[4,3-a][1,4]benzodiazepine] | 20.8
16 | Cc1nnc2n1-c1ccc(I)c(Cl)c1C(c1c(F)cccc1F)=NC2 [Example 41, 7-chloro-6-(2,6-difluorophenyl)-8-iodo-1-methyl-4H-[1,2,4]triazolo[4,3-a][1,4]benzodiazepine] | 4.8
17 | Fc1ccccc1C1=NCc2nnc(-c3ccncn3)n2-c2ccc(Cl)c(Cl)c21 [Example 18, 7,8-dichloro-6-(2-fluorophenyl)-1-pyrimidin-4-yl-4H-[1,2,4]triazolo[4,3-a][1,4]benzodiazepine] | 54.1
18 | COCCc1nnc2n1-c1ccc(Cl)c(Cl)c1C(c1c(F)cccc1F)=NC2 [Example 19, 7,8-dichloro-6-(2,6-difluorophenyl)-1-(2-methoxyethyl)-4H-[1,2,4]triazolo[4,3-a][1,4]benzodiazepine] | 43.9
19 | Cc1ccc2c(c1Cl)C(c1c(F)cccc1F)=NCc1nnc(-c3ccncn3)n1-2 [Example 49, 7-chloro-6-(2,6-difluorophenyl)-8-methyl-1-pyrimidin-4-yl-4H-[1,2,4]triazolo[4,3-a][1,4]benzodiazepine] | 40.5
20 | Fc1cccc(F)c1C1=NCc2nnc(-c3cccnn3)n2-c2ccc(C(F)(F)F)c(Cl)c21 [Example 38, 7-chloro-6-(2,6-difluorophenyl)-1-pyridazin-3-yl-8-(trifluoromethyl)-4H-[1,2,4]triazolo[4,3-a][1,4]benzodiazepine] | 28
21 | Fc1cccnc1C1=NCc2nncn2-c2ccc(Cl)c(Cl)c21 [Example 60, 7,8-dichloro-6-(3-fluoro-2-pyridyl)-4H-[1,2,4]triazolo[4,3-a][1,4]benzodiazepine] | 161
22 | Fc1cccc(F)c1C1=NCc2nncn2-c2ccc(Br)c(Cl)c21 [Example 7, 8-bromo-7-chloro-6-(2,6-difluorophenyl)-4H-[1,2,4]triazolo[4,3-a][1,4]benzodiazepine] | 9.1
23 | COc1ccc2c(c1Cl)C(c1c(F)cccc1F)=NCc1nnc(-c3cccnn3)n1-2 [Example 57, 7-chloro-6-(2,6-difluorophenyl)-8-methoxy-1-pyridazin-3-yl-4H-[1,2,4]triazolo[4,3-a][1,4]benzodiazepine] | 170
24 | Cc1nnc2n1-c1ccc(Cl)c(Cl)c1C(c1ncccc1F)=NC2 [Example 71, 7,8-dichloro-6-(3-fluoro-2-pyridyl)-1-methyl-4H-[1,2,4]triazolo[4,3-a][1,4]benzodiazepine] | 178
